The target in the assay is T1, Androgen receptor (Homo sapiens) (UniProt P10275).
T1 sequence (whole entry): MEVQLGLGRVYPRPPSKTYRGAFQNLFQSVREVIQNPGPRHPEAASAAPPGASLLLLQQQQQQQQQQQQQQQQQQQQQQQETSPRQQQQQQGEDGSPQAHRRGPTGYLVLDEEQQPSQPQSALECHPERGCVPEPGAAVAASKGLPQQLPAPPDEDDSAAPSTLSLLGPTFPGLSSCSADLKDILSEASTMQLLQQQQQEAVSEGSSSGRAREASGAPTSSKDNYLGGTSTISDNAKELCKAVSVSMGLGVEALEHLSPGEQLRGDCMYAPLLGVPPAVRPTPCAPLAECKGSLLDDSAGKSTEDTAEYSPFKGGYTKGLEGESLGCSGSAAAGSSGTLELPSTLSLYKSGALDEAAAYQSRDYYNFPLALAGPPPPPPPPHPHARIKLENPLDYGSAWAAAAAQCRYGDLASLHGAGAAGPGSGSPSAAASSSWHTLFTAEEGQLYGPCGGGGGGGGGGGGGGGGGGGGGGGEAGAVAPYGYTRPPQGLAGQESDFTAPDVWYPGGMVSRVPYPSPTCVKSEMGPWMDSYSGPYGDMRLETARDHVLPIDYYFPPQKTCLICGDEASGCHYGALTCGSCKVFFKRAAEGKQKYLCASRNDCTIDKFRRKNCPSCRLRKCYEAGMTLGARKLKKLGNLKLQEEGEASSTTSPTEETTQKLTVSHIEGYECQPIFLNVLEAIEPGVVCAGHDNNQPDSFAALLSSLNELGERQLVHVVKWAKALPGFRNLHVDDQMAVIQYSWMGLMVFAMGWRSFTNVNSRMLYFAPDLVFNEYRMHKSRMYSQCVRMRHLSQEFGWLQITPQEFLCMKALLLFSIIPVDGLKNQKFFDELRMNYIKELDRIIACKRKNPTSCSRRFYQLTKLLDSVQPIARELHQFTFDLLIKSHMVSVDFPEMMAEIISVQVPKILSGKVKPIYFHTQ
Conditions: CV-1.

The structures appear in SMILES notation.

Description: Relative stimulatory activity compared to 5-alpha-DHT in CV-1 cells expressing androgen receptor

`CC12CC[C@H]3[C@@H]([C@H](F)CC4CC(=O)CCC43C)[C@@H]1CCC2O` (stereo partly specified) came in with an RSA of 60.

The values are drawn from ChEMBL document CHEMBL1132232, “7alpha-Iodo and 7alpha-fluoro steroids as androgen receptor-mediated imaging agents” (J Med Chem, 1999).
